Laboratory results from patent US7767659B2, “Synthesis of naturally occurring ecteinascidins and related compounds” (Pharma Mar, S.A., priority 2002, dated 2010).

Assays:
LoVo = test: cells; settings: Homo sapiens, LoVo, 48 h; for GI50: read-out: LOVO GI50; for CC50: read-out: LOVO LC50; for IC (TGI): read-out: LOVO TGI
Procedure, shortened: (§1)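 Colorimetric SRB read (490 nm) on triplicate wells after 48 h at 37 °C, 5% CO2. Dose range 10 to 10^−8 μg/ml; 5×10^3 cells/well pre-attached 18 h.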

A-549 = test: cells; settings: Homo sapiens, A549, 48 h; for GI50: read-out: A549 GI50; for CC50: read-out: A549 LC50; for IC (TGI): read-out: A549 TGI
Procedure, shortened: as §1

HT-29 = test: cells; settings: Homo sapiens, HT-29, 48 h; for GI50: read-out: HT29 GI50; for CC50: read-out: HT29 LC50; for IC (TGI): read-out: HT29 TGI
Procedure, shortened: as §1

IGROV-ET = test: Inhibition of cells growth by colorimetric assay (SRB); settings: Homo sapiens, 48 h; for GI50: read-out: IGROV-ET GI50; for CC50: read-out: IGROV-ET LC50; for IC (TGI): read-out: IGROV-ET TGI
Procedure, shortened: as §1

SK-BR-3 = test: as above; settings: Homo sapiens, SK-BR-3, 48 h; for GI50: read-out: SK-BR3 GI50; for CC50: read-out: SK-BR3 LC50; for IC (TGI): read-out: SK-BR3 TGI
Procedure, shortened: as §1

K-562 = test: as above; settings: Homo sapiens, K562, 48 h; for GI50: read-out: K562 GI50; for CC50: read-out: K562 LC50; for IC (TGI): read-out: K562 TGI
Procedure, shortened: as §1

DU-145 = test: as above; settings: Homo sapiens, DU-145, 48 h; for GI50: read-out: DU145 GI50; for CC50: read-out: DU145 LC50; for IC (TGI): read-out: DU145 TGI
Procedure, shortened: as §1

PANC-1 = test: as above; settings: Homo sapiens, PANC-1, 48 h; for GI50: read-out: PANC-1 GI50; for CC50: read-out: PANC-1 LC50; for IC (TGI): read-out: PANC-1 TGI
Procedure, shortened: as §1

LoVo-Dox = test: as above; settings: Homo sapiens, 48 h; for GI50: read-out: LOVO-DOX GI50; for CC50: read-out: LOVO-DOX LC50; for IC (TGI): read-out: LOVO-DOX TGI
Procedure, shortened: as §1

HeLa-APL = test: as above; settings: Homo sapiens, 48 h; for GI50: read-out: HELA-APL GI50; for CC50: read-out: HELA-APL LC50; for IC (TGI): read-out: HELA-APL TGI
Procedure, shortened: as §1

SK-MEL-28 = test: as above; settings: Homo sapiens, SK-MEL-28, 48 h; for GI50: read-out: MEL-28 GI50; for CC50: read-out: MEL-28 LC50; for IC (TGI): read-out: MEL-28 TGI
Procedure, shortened: as §1

IGROV-1 = test: as above; settings: Homo sapiens, IGROV-1, 48 h; for GI50: read-out: IGROV GI50; for CC50: read-out: IGROV LC50; for IC (TGI): read-out: IGROV TGI
Procedure, shortened: as §1

LNCaP = test: as above; settings: Homo sapiens, LNCaP, 48 h; for GI50: read-out: LNCAP GI50; for CC50: read-out: LNCAP LC50; for IC (TGI): read-out: LNCAP TGI
Procedure, shortened: as §1

HeLa = test: as above; settings: Homo sapiens, HeLa, 48 h; for GI50: read-out: HELA GI50; for CC50: read-out: HELA LC50; for IC (TGI): read-out: HELA TGI
Procedure, shortened: as §1

For `COc1cc2c(cc1O)CCN[C@]21CS[C@@H]2c3c(OC(=O)/C=C/c4ccccc4)c(C)c4c(c3[C@H](COC1=O)N1C2[C@@H]2N[C@@H](Cc3cc(C)c(OC)c(O)c32)[C@@H]1C#N)OCO4` (stereo partly drawn) [compound 51], which GI50 (LoVo) is on record?
The GI50 was 3.93 nM.

And the CC50 (LoVo)?
The CC50 was 11800 nM.

What about the IC (TGI) (LoVo) of the same compound?
Its IC (TGI) is 8.86 nM.

And the GI50 (A-549)?
Its GI50 is 2.85 nM.

And the CC50 (A-549)?
The CC50 was 542 nM.

And the IC (TGI) (A-549)?
Its IC (TGI) is 6.59 nM.

What about the GI50 (HT-29) of the same compound?
The GI50 was 5.24 nM.

And the CC50 (HT-29)?
Its CC50 is 11.8 nM.

And the IC (TGI) (HT-29)?
The IC (TGI) was 2370 nM.

And the GI50 (IGROV-ET)?
Its GI50 is 43.6 nM.

And the CC50 (IGROV-ET)?
The CC50 was 11800 nM.

And the IC (TGI) (IGROV-ET)?
The IC (TGI) was 118 nM.

What about the GI50 (SK-BR-3) of the same compound?
The GI50 was 5.05 nM.

And the CC50 (SK-BR-3)?
The CC50 was 11800 nM.

What about the IC (TGI) (SK-BR-3) of the same compound?
Its IC (TGI) is 344 nM.

And the GI50 (K-562)?
Its GI50 is 3.15 nM.

And the CC50 (K-562)?
The CC50 was 653 nM.

What about the IC (TGI) (K-562) of the same compound?
Its IC (TGI) is 7.75 nM.

What about the GI50 (DU-145) of the same compound?
Its GI50 is 5.24 nM.

What about the CC50 (DU-145) of the same compound?
The CC50 was 11800 nM.

And the IC (TGI) (DU-145)?
Its IC (TGI) is 16.3 nM.

And the GI50 (PANC-1)?
The GI50 was 3.53 nM.

What about the CC50 (PANC-1) of the same compound?
The CC50 was 520 nM.

And the IC (TGI) (PANC-1)?
The IC (TGI) was 7.73 nM.

And the GI50 (LoVo-Dox)?
Its GI50 is 352 nM.

What about the CC50 (LoVo-Dox) of the same compound?
Its CC50 is 11800 nM.

What about the IC (TGI) (LoVo-Dox) of the same compound?
The IC (TGI) was 11800 nM.

And the GI50 (HeLa-APL)?
Its GI50 is 3.49 nM.

And the CC50 (HeLa-APL)?
The CC50 was 10.9 nM.

And the IC (TGI) (HeLa-APL)?
Its IC (TGI) is 6.18 nM.

And the GI50 (SK-MEL-28)?
Its GI50 is 2.71 nM.

What about the CC50 (SK-MEL-28) of the same compound?
Its CC50 is 7.94 nM.

What about the IC (TGI) (SK-MEL-28) of the same compound?
The IC (TGI) was 4.64 nM.

What about the GI50 (IGROV-1) of the same compound?
The GI50 was 3.35 nM.

What about the CC50 (IGROV-1) of the same compound?
The CC50 was 118000 nM.

What about the IC (TGI) (IGROV-1) of the same compound?
Its IC (TGI) is 6.45 nM.

And the GI50 (LNCaP)?
Its GI50 is 2.31 nM.

What about the CC50 (LNCaP) of the same compound?
Its CC50 is 6.82 nM.

And the IC (TGI) (LNCaP)?
Its IC (TGI) is 3.96 nM.

And the GI50 (HeLa)?
The GI50 was 3.43 nM.

What about the CC50 (HeLa) of the same compound?
The CC50 was 15.5 nM.

And the IC (TGI) (HeLa)?
Its IC (TGI) is 6.63 nM.

`C=CCN1[C@@H]2c3c(cc(C)c(OC)c3O)C[C@H]1[C@H](C#N)N1C2[C@@H]2SC[C@]3(NCCc4cc(O)c(OC)cc43)C(=O)OC[C@H]1c1c3c(c(C)c(OC(=O)/C=C/c4ccccc4)c12)OCO3` (stereo partly drawn) [compound 49] was tested. Which GI50 (LoVo) did it give?
Its GI50 is 250 nM.

And the CC50 (LoVo)?
The CC50 was 890 nM.

What about the IC (TGI) (LoVo) of the same compound?
Its IC (TGI) is 471 nM.

And the GI50 (A-549)?
Its GI50 is 184 nM.

And the CC50 (A-549)?
Its CC50 is 1010 nM.

And the IC (TGI) (A-549)?
Its IC (TGI) is 431 nM.

And the GI50 (HT-29)?
The GI50 was 194 nM.

And the CC50 (HT-29)?
Its CC50 is 11300 nM.

What about the IC (TGI) (HT-29) of the same compound?
Its IC (TGI) is 588 nM.

And the GI50 (IGROV-ET)?
The GI50 was 280 nM.

And the CC50 (IGROV-ET)?
The CC50 was 11300 nM.

And the IC (TGI) (IGROV-ET)?
Its IC (TGI) is 616 nM.

What about the GI50 (SK-BR-3) of the same compound?
Its GI50 is 49.6 nM.

What about the CC50 (SK-BR-3) of the same compound?
The CC50 was 11300 nM.

What about the IC (TGI) (SK-BR-3) of the same compound?
Its IC (TGI) is 1860 nM.

What about the GI50 (K-562) of the same compound?
Its GI50 is 37.7 nM.

And the CC50 (K-562)?
Its CC50 is 5100 nM.

What about the IC (TGI) (K-562) of the same compound?
The IC (TGI) was 311 nM.

And the GI50 (DU-145)?
The GI50 was 107 nM.

And the CC50 (DU-145)?
The CC50 was 11300 nM.

And the IC (TGI) (DU-145)?
The IC (TGI) was 1250 nM.

And the GI50 (PANC-1)?
The GI50 was 179 nM.

What about the CC50 (PANC-1) of the same compound?
Its CC50 is 3920 nM.

What about the IC (TGI) (PANC-1) of the same compound?
Its IC (TGI) is 564 nM.

What about the GI50 (LoVo-Dox) of the same compound?
The GI50 was 672 nM.

And the CC50 (LoVo-Dox)?
Its CC50 is 11300 nM.

And the IC (TGI) (LoVo-Dox)?
The IC (TGI) was 11300 nM.

And the GI50 (HeLa-APL)?
The GI50 was 182 nM.

And the CC50 (HeLa-APL)?
The CC50 was 701 nM.

What about the IC (TGI) (HeLa-APL) of the same compound?
The IC (TGI) was 357 nM.

What about the GI50 (SK-MEL-28) of the same compound?
Its GI50 is 181 nM.

And the CC50 (SK-MEL-28)?
The CC50 was 701 nM.

And the IC (TGI) (SK-MEL-28)?
The IC (TGI) was 356 nM.

And the GI50 (IGROV-1)?
The GI50 was 165 nM.

And the CC50 (IGROV-1)?
The CC50 was 1130 nM.

And the IC (TGI) (IGROV-1)?
The IC (TGI) was 432 nM.

And the GI50 (LNCaP)?
The GI50 was 40.5 nM.

And the CC50 (LNCaP)?
Its CC50 is 442 nM.

And the IC (TGI) (LNCaP)?
Its IC (TGI) is 175 nM.

And the GI50 (HeLa)?
Its GI50 is 189 nM.

What about the CC50 (HeLa) of the same compound?
The CC50 was 929 nM.

And the IC (TGI) (HeLa)?
Its IC (TGI) is 418 nM.
